From patent publication US20240142467A1, “Use of Biomarkers in the Treatment of Fibrotic Conditions with a PDE4B-inhibitor” (Boehringer Ingelheim International GmbH, priority 2022, published 2024)

Test system: bleomycin-induced lung fibrosis
Test: Rat bleomycin model of pulmonary fibrosis
Assay type: in vivo, Wistar rats
Protocol: Pulmonary remodeling was induced in rats by a single intratracheal administration of 1 mg/kg bleomycin.
Adult, test-naïve, male Wistar rats (WI(Han)); 280-300 g) were purchased from Janvier (Janvier Labs, Le Genest-Saint-Isle, France). All animal experimentation was conducted in accordance with German national guidelines and legal regulations and approved by the ethical committee Regierungspräsidium Tübingen (Germany) (Permit Number: 12-012).
Bleomycin was dissolved in phosphate buffered saline (PBS) to a final concentration of […]. On day 0, animals were transiently anaesthetised with isoflurane (3-4%) in oxygen. Using a 1 ml-Syringe with a 22-gauge flexible cannula, 200 μL/kg of either saline or bleomycin (final dose 1 mg/kg) were administered intratracheally.
The PDE4-inhibitor of formula A′ was dissolved in 0.5% hydroxyethyl cellulose containing 0.01% Tween20 and applied by oral gavage at a dose of 2.5 mL/kg twice daily at 06:00 and 18:00 from day 10 until day 20.
On day 18, animals were anaesthetized using 3-4% isoflurane and placed on the μCT (Quantum FX) scanner mounting plate. After measurement, animals were returned to the home cage for recovery. During imaging, synchronization procedures were employed for avoidance of motion blur (respiration, heart beat) thereby improving the quality of the images. The reconstruction of the three-dimensional pictures from the raw data could subsequently be performed.
Animals were anaesthetised with Narcoren (60 mg/mL/kg body weight i.p.) and Ketamine (0.5-1 mg/animal, i.m.). The trachea was exposed, a small incision made, and a tracheal tube fixed within the trachea by a ligature. Spontaneous breathing was suppressed by pancuronium (0.8 mg/kg; 1 mL/kg body weight, i.v.) and animals were mechanically ventilated with a tidal volume of 10 mL/kg, breathing frequency of 90 breaths/minute and a positive end expiratory pressure of 3 cmH2O. Airway resistance, compliance, elastance and pressure volume loop was determined by means of a FlexiVent system supported by software version 7.2. To perform the lung function measurement the template “FlexiVent FX-Rat Default-rel.B” with the script “Rat 6basic_1loop v7.0 Lamb” was used. A deep inspiration to total lung capacity (Deep Inflation) was performed with an inflation pressure limited to 30 cmH2O. A “Snapshot-90 v7.0, Quick Prime-3 v7.0, PVS-V v7.0 and PVs-P v7.0 measurement was subsequently conducted. After the lung function measurement animals were euthanized by an overdose of Narcoren (0.16 g/5 ml, 1 ml/animal i.v.).
The right main bronchus was occluded with a ligature and the right lung was removed. […]
All data are presented as means±S.E.M. of n animals. Statistical differences between groups were analyzed by the non-clinical statistical group.

[O-][S@+]1CCc2nc(N3CCC(c4ncc(Cl)cn4)CC3)nc(NC3(CO)CCC3)c21 [Compound of formula A′]
improvement in tissue volume (ratio of remodeled tissue to total lung volume) measured by μCT (2.5 mg/kg oral twice daily, day 10 to day 20, μCT on day 18, bleomycin 1 mg/kg intratracheal, P<0.05): 64% | restoration of lung volume measured at a pressure of 30 cmH2O (oral twice daily, day 10 to day 20, FlexiVent, P<0.05): 31% | reduction of OPN levels in lung tissue (oral twice daily, day 10 to day 20, OPN ELISA of right lung homogenate): approx. 49% | lung function (therapeutic rat model of bleomycin-induced lung fibrosis): improved lung function
